Type in all cases: functional, cell-based
Test [1] concerns HT-29. Briefly: Antiproliferative activity against human HT29 cell line.
Test [2] has as its system OVCAR-5. Briefly: Antiproliferative activity against human OVCAR5 cell line.
Test [3] has as its system A549. Briefly: Antiproliferative activity against human A549 cell line.
Test [4] concerns SW-60. Briefly: Antiproliferative activity against […].
Test [5] concerns HOP-62. The test is described as follows: Antiproliferative activity against human HOP62 cell line.
Test [6] deals with PC-3. The test is described as follows: Antiproliferative activity against human PC3 cell line.
[7] abbreviates: Homo sapiens, HT-29, read-out: IC50.
Setting [8] is: Homo sapiens, OVCAR-5, read-out: IC50.
The mark [9] stands for this setting: Homo sapiens, PC-3, read-out: IC50.
The mark [10] stands for this setting: Homo sapiens, SW-60, read-out: IC50.
Where [11] appears, read: Homo sapiens, A549, read-out: IC50.
The mark [12] stands for this setting: Homo sapiens, HOP-62, read-out: IC50.

Take `COC(=O)C[C@H]1[C@]2(C)C3=C(C)[C@H](c4ccoc4)C[C@H]3O[C@@H]2[C@H](O)[C@@H]2[C@]1(C)C(=O)C=C[C@@]2(C)C(=O)NC(C)c1ccccc1` (stereo partly specified): the IC50 (commonly the concentration needed to halve the response being measured) is 47.2 µM in test [1] (setting [7]); 89.2 µM in test [2] (setting [8]); “Not Active” in test [3] (a549); “Not Active” in test [4] (sw-60); “Not Active” in test [5] (hop-62); 43.1 µM in test [6] (setting [9]).
`COC(=O)C[C@H]1[C@]2(C)C3=C(C)[C@H](c4ccoc4)C[C@H]3O[C@@H]2[C@H](O)[C@@H]2[C@]1(C)C(=O)C=C[C@@]2(C)C(=O)N1CCOCC1`: the IC50 in test [1] (setting [7]) is 3.38 µM; in test [2] (setting [8]), 2.11 µM; in test [3] (a549), “Not Active”; in test [4] (setting [10]), 5.72 µM; in test [5] (hop-62) it was “Not Active”; in test [6] (setting [9]), 2.26 µM.
Take `COC(=O)C[C@H]1[C@]2(C)C3=C(C)[C@H](c4ccoc4)C[C@H]3O[C@@H]2[C@H](O)[C@@H]2[C@]1(C)C(=O)C=C[C@@]2(C)C(=O)N1CCCCC1`: the 50% inhibitory concentration (IC50) in test [1] (setting [7]) is 91.5 µM; in test [2] (setting [8]) it was 62.3 µM; in test [3] (setting [11]) it was 78.3 µM; in test [4] (sw-60), “Not Active”; in test [5] (hop-62), “Not Active”; in test [6] (setting [9]), 48.2 µM.
Regarding `COC(=O)C[C@H]1[C@]2(C)C3=C(C)[C@H](c4ccoc4)C[C@H]3O[C@@H]2[C@H](O)[C@@H]2[C@]1(C)C(=O)C=C[C@@]2(C)C(=O)NCc1ccccc1`, the concentration for half-maximal inhibition (IC50) in test [1] (setting [7]) is 43.2 µM; in test [2] (setting [8]), 82.4 µM; in test [3] (a549), “Not Active”; in test [4] (sw-60), “Not Active”; in test [5] (setting [12]), 26.3 µM; in test [6] (pc-3), “Not Active”.
As to `COC(=O)C[C@H]1[C@]2(C)C3=C(C)[C@H](c4ccoc4)C[C@H]3O[C@@H]2[C@H](O)[C@@H]2[C@]1(C)C(=O)C=C[C@@]2(C)C(=O)NC(C(=O)OC)c1ccccc1` (stereo partly specified), the IC50 in test [1] (setting [7]) is 8.62 µM; in test [2] (ovcar-5) it was “Not Active”; in test [3] (a549) it was “Not Active”; in test [4] (sw-60), “Not Active”; in test [5] (setting [12]), 13.5 µM; in test [6] (setting [9]) it was 8.11 µM.
As for `COC(=O)C[C@H]1[C@]2(C)C3=C(C)[C@H](c4ccoc4)C[C@H]3O[C@@H]2[C@H](O)[C@@H]2[C@]1(C)C(=O)C=C[C@@]2(C)C(=O)NCc1ccc(C(F)(F)F)cc1`, the half-inhibitory concentration (IC50) was 17.5 µM in test [1] (setting [7]); “Not Active” in test [2] (ovcar-5); 37.3 µM in test [3] (setting [11]); 26.4 µM in test [4] (setting [10]); 14.1 µM in test [5] (setting [12]); 32.3 µM in test [6] (setting [9]).
As for `COC(=O)C[C@H]1[C@]2(C)C3=C(C)[C@H](c4ccoc4)C[C@H]3O[C@@H]2[C@H](O)[C@@H]2[C@]1(C)C(=O)C=C[C@@]2(C)C(=O)NCc1ccc(F)cc1`, the half-maximal inhibitory concentration (IC50) is 78.1 µM in test [1] (setting [7]); 84.1 µM in test [2] (setting [8]); “Not Active” in test [3] (a549); “Not Active” in test [4] (sw-60); “Not Active” in test [5] (hop-62); “Not Active” in test [6] (pc-3).
In the case of `COC(=O)C[C@H]1[C@]2(C)C3=C(C)[C@H](c4ccoc4)C[C@H]3O[C@@H]2[C@H](O)[C@@H]2[C@]1(C)C(=O)C=C[C@@]2(C)C(=O)NCc1ccc(OC)cc1`, the IC50 result in test [1] (ht-29) is “Not Active”; in test [2] (setting [8]) it was 93.1 µM; in test [3] (a549), “Not Active”; in test [4] (sw-60) it was “Not Active”; in test [5] (setting [12]), 102 µM; in test [6] (setting [9]), 21.5 µM.
In the case of `COC(=O)C[C@H]1[C@]2(C)C3=C(C)[C@H](c4ccoc4)C[C@H]3O[C@@H]2[C@H](O)[C@@H]2[C@]1(C)C(=O)C=C[C@@]2(C)C(=O)NCc1cccc(OC)c1`, the IC50 in test [1] (setting [7]) is 63.1 µM; in test [2] (ovcar-5), “Not Active”; in test [3] (a549) it was “Not Active”; in test [4] (sw-60), “Not Active”; in test [5] (setting [12]), 79.2 µM; in test [6] (pc-3), “Not Active”.
As for `COC(=O)C[C@H]1[C@]2(C)C3=C(C)[C@H](c4ccoc4)C[C@H]3O[C@@H]2[C@H](O)[C@@H]2[C@]1(C)C(=O)C=C[C@@]2(C)C(=O)NCC(C)C`, the half-inhibitory concentration (IC50) in test [1] (setting [7]) was 0.05 µM; in test [2] (setting [8]), 1.53 µM; in test [3] (a549), “Not Active”; in test [4] (setting [10]) it was 0.08 µM; in test [5] (setting [12]) it was 4.83 µM; in test [6] (setting [9]), 7.43 µM.
`COC(=O)C[C@H]1[C@]2(C)C3=C(C)[C@H](c4ccoc4)C[C@H]3O[C@@H]2[C@@H]2OC(=O)[C@]3(C)C=CC(=O)[C@@]1(C)[C@@H]23` [NIMBOLIDE]: the IC50 in test [1] (setting [7]) amounted to 6.94 µM; in test [2] (setting [8]) it was 4.17 µM; in test [3] (setting [11]) it was 15.6 µM; in test [4] (setting [10]), 8.25 µM; in test [5] (setting [12]), 10.4 µM; in test [6] (setting [9]), 4.59 µM.

(Values after ChEMBL document CHEMBL1145323, “Synthesis and biological activity of amide derivatives of nimbolide” (Bioorg Med Chem Lett, 2006).)
